Results as given in patent US20260216198A1, “GPR35 MODULATORS” (ThirtyFiveBio Limited, priority 2023, published 2026).

Biological target: T1, GPR35 (Homo sapiens, UniProt Q9HC97)
T1 construct: expressed in transfected cells; host or cells: CHO-K1 cells co-expressing mitochondrial aequorin and Gα16
Assay: cellular GPR35 phospho-ERK HTRF assay (inhibition of lodoxamide-induced phospho-ERK signal)
Type: cell-based
Settings: GPR35-CHO-K1-mt aequorin-Gα16 cell line; agonist lodoxamide at EC80; read-out: Activity Group (IC50, inhibition of GPR35 agonist-induced phospho-ERK signal)
How it was run: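 GPR35-CHO-K1-mt aequorin-Gα16 cells were stimulated with lodoxamide at its EC80. After lysis, phospho-ERK1/2 (Thr202/Tyr204) was read by HTRF sandwich with Eu-cryptate/d2 antibodies at 665 nm. IC50 is the modulator concentration giving 50% inhibition of the window between agonist-plus-vehicle and no-agonist controls.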

T1 sequence (Q9HC97 whole entry): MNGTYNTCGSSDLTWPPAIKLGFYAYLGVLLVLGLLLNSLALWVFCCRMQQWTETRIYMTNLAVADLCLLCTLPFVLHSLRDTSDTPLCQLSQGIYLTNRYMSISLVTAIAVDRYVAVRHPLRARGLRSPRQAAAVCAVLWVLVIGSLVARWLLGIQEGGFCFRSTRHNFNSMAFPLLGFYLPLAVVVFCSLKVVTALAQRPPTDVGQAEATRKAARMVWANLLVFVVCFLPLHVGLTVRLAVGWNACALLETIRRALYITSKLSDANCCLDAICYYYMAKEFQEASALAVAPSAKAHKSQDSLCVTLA

| SMILES | IC50 [µM] |
| --- | --- |
| COc1ccc(S(=O)(=O)Cc2ccc(NC(=O)c3cccc(-c4cnc(C)c(C(=O)O)c4)c3)cc2)cc1 [Example 99, 5-[3-[[4-[(4-Methoxyphenyl)sulfonylmethyl]phenyl]carbamoyl]phenyl]-2-methyl-pyridine-3-carboxylic acid] | 1 to 10 |
| COc1cccc(S(=O)(=O)Cc2ccc(NC(=O)c3cccc(-c4cnc(C)c(C(=O)O)c4)c3)cc2)c1 [Example 100, 5-[3-[[4-[(3-Methoxyphenyl)sulfonylmethyl]phenyl]carbamoyl]phenyl]-2-methyl-pyridine-3-carboxylic acid] | 1 to 10 |
| Cc1ccc(S(=O)(=O)Cc2ccc(NC(=O)c3cccc(-c4cnc(C)c(C(=O)O)c4)c3)cc2)cn1 [Example 101, 2-Methyl-5-[3-[[4-[(6-methyl-3-pyridyl)sulfonylmethyl]phenyl]carbamoyl]phenyl]pyridine-3-carboxylic acid] | 1 to 10 |
